# Several values for one entry are separate records, joined by “and”; a condition that tells them apart may be missing. Identical values can stand only once.
# Columns and labels:
# Oryctolagus sp. = settings: acute, dermal
# Rattus norvegicus = settings: for LD50 / LC50: acute
# [1] = reproduction developmental, duration: 2 weeks, inhalation, Sprague-Dawley
# [2] = reproduction developmental, oral, gavage, F, Sprague-Dawley
# [3] = short-term, duration: 27 days, oral, gavage, Sprague-Dawley
# [4] = subchronic, duration: 13 weeks, oral, gavage, F, B6C3F1
# [5] = subchronic, duration: 13 weeks, oral, gavage, M, B6C3F1
# [6] = developmental, duration: 10 days, oral, Wistar
# [7] = developmental, duration: 128 days, oral, gavage, Wistar
# [8] = reproduction developmental, duration: 10 days, oral, F, Wistar
# [9] = reproduction developmental, duration: 27 days, oral, gavage, F, Wistar
# [10] = reproduction developmental, duration: 27 days, oral, gavage, Wistar, generation: F1
# [11] = reproduction developmental, duration: 86 days, oral, gavage, Wistar
# [12] = reproduction developmental, duration: 128 days, oral, gavage, F, Wistar
# [13] = reproduction developmental, duration: 128 days, oral, gavage, Wistar
# [14] = short-term, duration: 28 days, oral, diet, Sprague-Dawley
smiles,measurement,setting,value
CCCCOC(=O)CC [Butyl propionate],LD50,"Oryctolagus sp.; occlusive, New Zealand",> 14000 mg/kg
same,LD50,"Oryctolagus sp.; occlusive, albino",> 14000 mg/kg
same,LD50,"Rattus norvegicus; dermal, occlusive, Fischer 344",> 2000 mg/kg
same,LD50,"Rattus norvegicus; oral, gavage, Fischer 344",> 5000 mg/kg
same,LC50,"Rattus norvegicus; oral, gavage, Sprague-Dawley",12300 mg/kg
same,LD50,"Rattus norvegicus; oral, gavage, Sprague-Dawley",11000 mg/kg
same,LD50,"Rattus norvegicus; oral, gavage, Wistar",> 14000 mg/kg
same,NOAEL,"Rattus norvegicus; developmental, duration: 10 days, inhalation, Sprague-Dawley",≥ 10600 mg/m3
same,LOAEL,Rattus norvegicus; [1],13300 mg/m3
same,NOAEL,Rattus norvegicus; [1],2660 mg/m3
same,LOAEL,"Rattus norvegicus; reproduction developmental, duration: 13 weeks, inhalation, Sprague-Dawley",3990 mg/m3
same,LOAEL,"Rattus norvegicus; short-term, duration: 11 days, inhalation, Fischer 344",4260 mg/m3
CCCCCCCCCc1cc2ccccc2c(S(=O)(=O)[O-])c1CCCCCCCCC.CCCCCCCCCc1cc2ccccc2c(S(=O)(=O)[O-])c1CCCCCCCCC.[Ca+2] [Calcium bis(dinonylnaphthalenesulphonate)],LD50,Oryctolagus sp.; New Zealand,> 20000 mg/kg
same,LC50,"Rattus norvegicus; Inhalation, Wistar",> 18 mg/L
same,LD50,"Rattus norvegicus; oral, gavage, Sprague-Dawley",> 5000 mg/kg
CCOP(=S)(S)OCC [Diethyl dithiophosphoric acid],LD50,Oryctolagus sp.; New Zealand,> 2000 mg/kg
same,LC50,Rattus norvegicus; inhalation,1640 mg/m3
same,LD50,Rattus norvegicus; oral,4510 mg/kg
C=CC(C)CCC=C(C)C (stereo not drawn) [Dihydromyrcene],LD50,Oryctolagus sp.; New Zealand,> 5000 mg/kg
same,LD50,"Rattus norvegicus; oral, Wistar",> 5000 mg/kg
same,LD50,"Rattus norvegicus; oral, gavage, Wistar",> 5000 mg/kg
O=C(O)CCCCCCCCCCC(=O)O [Dodecanedioic acid],LD50,Oryctolagus sp.; occlusive,> 6000 mg/kg
same,LC50,Rattus norvegicus; Inhalation,> 4.3 mg/L
same,LD50,Rattus norvegicus; oral,> 3000 mg/kg
same,LD50,"Rattus norvegicus; oral, gavage",> 17000 mg/kg
same,NOAEL,"Rattus norvegicus; reproduction developmental, duration: 50 days, oral, gavage, CRL:CD BR",1000 mg/kg-day
CCCCCCC(=O)O [Heptanoic acid],LD50,Oryctolagus sp.; albino,≥ 2000 mg/kg
same,NOAEL,"Mus musculus; chronic, duration: 80 weeks, dermal, C3H/HeCr",50 mg
same,LC50,"Rattus norvegicus; Inhalation, Sprague-Dawley",> 4.6 mg/L
same,LD50,Rattus norvegicus; oral,8370 mg/kg
same,NOAEL,"Rattus norvegicus; developmental, duration: 9 days, oral, gavage, Sprague-Dawley",1000 mg/kg-day
same,NOAEL,"Rattus norvegicus; reproduction developmental, duration: 9 days, oral, gavage, F, Sprague-Dawley",1000 mg/kg-day
same,LOAEL,Rattus norvegicus; [2],> 1000 mg/kg-day
same,NOAEL,Rattus norvegicus; [2],< 200 mg/kg-day
same,NOAEL,"Rattus norvegicus; reproduction developmental, oral, gavage, Sprague-Dawley, generation: F1",≥ 1000 mg/kg-day and ≤ 2000 mg/kg-day
same,LOAEL,Rattus norvegicus; [3],3500 mg/kg-day
same,NOAEL,Rattus norvegicus; [3],1750 mg/kg-day
O=C1OC(=O)C2CCCCC12 (stereo not drawn) [Hexahydrophthalic anhydride],LD50,Oryctolagus sp.; New Zealand,> 2000 mg/kg
same,LC50,"Rattus norvegicus; Inhalation, Sprague-Dawley",> 1100 mg/m3
same,LD50,Rattus norvegicus; oral,3310 mg/kg
same,LD50,"Rattus norvegicus; oral, Sprague-Dawley",≥ 2700 mg/kg and ≤ 2800 mg/kg
C=CC(=C)CCC=C(C)C [Myrcene],LD50,Oryctolagus sp.; New Zealand,> 5000 mg/kg
same,LD50,"Mus musculus; acute, oral, gavage, Swiss",5060 mg/kg
same,LOAEL,Mus musculus; [4],500 mg/kg-day
same,NOAEL,Mus musculus; [4],250 mg/kg-day
same,LOAEL,Mus musculus; [5],1000 mg/kg-day
same,NOAEL,Mus musculus; [5],500 mg/kg-day
same,LD50,"Rattus norvegicus; oral, Wistar",> 5000 mg/kg
same,LD50,"Rattus norvegicus; oral, gavage, Wistar",> 11400 mg/kg
same,LOAEL,Rattus norvegicus; [6],1200 mg/kg-day
same,NOAEL,Rattus norvegicus; [6],500 mg/kg-day
same,NOAEL,"Rattus norvegicus; developmental, duration: 27 days, oral, gavage, Wistar",250 mg/kg-day
same,LOAEL,Rattus norvegicus; [7],500 mg/kg-day
same,NOAEL,Rattus norvegicus; [7],250 mg/kg-day
same,LOAEL,Rattus norvegicus; [8],1200 mg/kg-day
same,NOAEL,Rattus norvegicus; [8],500 mg/kg-day
same,LOAEL,Rattus norvegicus; [9],1000 mg/kg-day
same,NOAEL,Rattus norvegicus; [9],500 mg/kg-day
same,LOAEL,Rattus norvegicus; [10],500 mg/kg-day
same,NOAEL,Rattus norvegicus; [10],250 mg/kg-day
same,LOAEL,Rattus norvegicus; [11],500 mg/kg-day
same,NOAEL,Rattus norvegicus; [11],300 mg/kg-day
same,LOAEL,Rattus norvegicus; [12],1000 mg/kg-day
same,NOAEL,Rattus norvegicus; [12],500 mg/kg-day
same,LOAEL,Rattus norvegicus; [13],500 mg/kg-day
same,NOAEL,Rattus norvegicus; [13],250 mg/kg-day
same,NOAEL,"Rattus norvegicus; reproduction developmental, oral, gavage, Wistar",300 mg/kg-day
same,LOAEL,"Rattus norvegicus; subchronic, duration: 13 weeks, oral, gavage, Fischer 344",250 mg/kg-day
"Cc1ccc(N(C)C)cc1 [N,N,4-Trimethylaniline]",LD50,Oryctolagus sp.; New Zealand,> 2000 mg/kg
same,LC50,"Rattus norvegicus; inhalation, Sprague-Dawley",1.4 mg/L
same,LD50,"Rattus norvegicus; oral, Sprague-Dawley",1650 mg/kg
CC(C)CCC(C)Nc1ccc(Nc2ccccc2)cc1 (stereo not drawn) [N-(5-Methyl-2-hexyl)-N'-phenyl-p-phenylenediamine],LD50,"Oryctolagus sp.; occlusive, New Zealand",> 5010 mg/kg
same,LOAEL,Rattus norvegicus; [14],750 ppm
same,NOAEL,Rattus norvegicus; [14],500 ppm
"CCCCCCCCCc1cc2ccccc2c(S(=O)(=O)[O-])c1CCCCCCCCC.CCCCCCCCCc1cc2ccccc2c(S(=O)(=O)[O-])c1CCCCCCCCC.[Ba+2] [Naphthalenesulfonic acid, dinonyl-, barium salt]",LD50,Oryctolagus sp.; New Zealand,< 20000 mg/kg
same,LC50,"Rattus norvegicus; Inhalation, Wistar",> 21 mg/L
same,LD50,"Rattus norvegicus; oral, diet, Sprague-Dawley",> 5000 mg/kg
same,LD50,"Rattus norvegicus; oral, gavage, Wistar",> 5000 mg/kg
